Values quoted from earlier work as cited in US9173940B1, “Mixture of betamethasone and tranilast with a transdermal gel for scar treatment” (PROFESSIONAL COMPOUNDING CENTERS OF AMERICA (PCCA), priority 2014, dated 2015).

Conditions: taken orally

- oral absorption: well-absorbed
SMILES: COc1ccc(/C=C/C(=O)Nc2ccccc2C(=O)O)cc1OC [Tranilast]
